Earlier results in US20050095200A1, “Prokinetic drugs assistance to small intestine imaging” (priority 2003, published 2005).
Like-named read-outs stand apart in the source and are kept apart here.

Assays:
[1] = for half-life: in vivo
[2] = system: small intestine
[3] = Medline cross-correlation with 12,155 bleeding publications
[4] = system: duodenum and jejunum
[5] = system: healthy subjects; settings: about 10 mg Cisapride by mouth
[6] = system: stomach; settings: for subjects with barium emptied from the stomach after 60 minutes: 3 minutes after intake of barium; for food emptying half-life from the stomach: oral 15 mg Metoclopramide 30 minutes prior to tagged food
[7] = healthy subjects, about 30 mg/day Cisapride by mouth (10x3)
[8] = manometric measurement, intravenous injection of about 10 mg Cisapride

In the case of `COc1cc(N)c(Cl)cc1C(=O)NC1CCN(CCCOc2ccc(F)cc2)CC1OC` (stereo not drawn) [Cisapride, CIS-4-AMINO-5-CHLORO-N-(1-(4-FLUOROPHENOXY) PROPYL)3 METHOXY-4-PIPERIDINYL)-2 METHOXYBENZAMIDE MONOHYDRATE], the “cases with abdominal discomfort” value (in vivo) is given as “about 16%”, the “cases with abdominal pain” value (in vivo) is given as “about 4%” and the half-life [1] is given as “about 10 hours”. The bio-availability ([1]; oral) was “about 40%”, the “intensity of segmentary contraction” value ([2]; daily dose of about 10 to 15 mg Cisapride) was “may be insufficient” and the “reports of bleeding from the digestive tract caused by the drug” value [3] was “not a single report of bleeding from the digestive tract caused by Cisapride”. The “change in the number of waves or in the wavelength” value [4, 7] was “no change”, the “increase of amplitude in mmHg in the duodenum and jejunum” value [4, 7] was “over 18.4%” and the “contraction amplitude in the jejunum increased by” value [4, 8] was “about 43%”. The contraction frequency [4, 8] was “increased”, the “decrease of transit time of solid food” value [5] was “about 20%” and the “stomach emptying t1/2” value ([6]; about 10 mg Cisapride by mouth) was “about 78 min”. For the same compound, the “stomach emptying time, effect” value ([6]; about 10 mg Cisapride by mouth) was “not affected”, the “emptying indigestible radio-opaque markers during the first hour” value ([6]; diabetics with gastroparesis, 5 mg Cisapride intravenously) was “lack of efficiency” and the “subjects with barium emptied from the stomach after 60 minutes” value ([6]; intravenous 8 mg Cisapride) was 85%.
In the case of `CCN(CC)CCNC(=O)c1cc(Cl)c(N)cc1OC` [Metoclopramide, AMINO-4 CHLORO-5 N-(DIETHYLAMINO-2 ETHYL) METHOXY-2 BENZAMIDE], the safety profile (intravenous about 10 mg and oral about 20 mg) is listed as “high safety profile”, the half-life [1] is listed as “about 5 hours” and the “absorption when taken orally” value ([1]; oral) is listed as “rapid and good”. The bio-availability ([1]; oral) was “about 77%”, the “graph of plasma concentration at various times after oral administration” value ([1]; oral dose of 10 mg) was “linear” and the “intensity of segmentary contraction” value ([2]; about single 20 mg dose of Metoclopramide) was “may be insufficient”. The “reports of bleeding from the digestive tract caused by the drug” value [3] was “not a single description of bleeding damage”, the “emptying indigestible radio-opaque markers during the first hour” value ([6]; diabetics with gastroparesis, 10 mg Metoclopramide intravenously) was “lack of efficiency” and the “mean half-life of stomach emptying” value ([6]; diabetics with gastroparesis, semi-solid tagged substance, 30 mg Metoclopramide per day (3x10), down from 110) was 1.12 h. The “food emptying half-life from the stomach” value ([6]; healthy subjects) was 1.2 h, the “subjects with barium emptied from the stomach after 60 minutes” value ([6]; intravenous 10 mg Metoclopramide) was 93.5% and the “food emptying half-life from the stomach” value ([6]; patients with reflux esophagitis) was 0.993 h.
